Molecules are shown by their SMILES.

The subject of the experiment is Mus musculus. Put plainly: Immunostimulant activity after subcutaneous administration using mouse protection assay. The conditions noted are these: sc, read-out: MED. Format: functional.
Take `Nc1ccc2nc(-c3ccccc3)cc(NC3CCCCC3)c2c1`: the minimal effective dose was over 100 mg/kg.

Consider `Nc1ccc2nc(-c3ccccc3)cc(Nc3ccc(F)c(F)c3)c2c1`, for which the minimal effective dose came to 6.25 mg/kg.

Regarding `CC(=O)Nc1ccc2nc(C)cc(Nc3ccc(OCC4CCCCC4)cc3)c2c1`, the minimal effective dose was found to be 12.5 mg/kg.

`Cc1cc(Nc2ccc(OCC3CCCCC3)cc2)c2cc(N)ccc2n1`: the minimal effective dose was found to be 6.25 mg/kg.

As for `Nc1ccc2nccc(Nc3ccc(OCC4CCCCC4)cc3)c2c1`, the minimal effective dose stood at 12.5 mg/kg.

As to `Nc1ccc2nc(-c3ccccc3)cc(Nc3ccc(OCC4CCCCC4)cc3)c2c1`, the minimal effective dose is 5.6 mg/kg.

On to `Cc1cc(Nc2ccc(OCC3CCCCC3)cc2)c2cc(NC(N)=O)ccc2n1`, for which the minimal effective dose stood at 50 mg/kg.

Take `CCOc1ccc(Nc2ccnc3ccc(N)cc23)cc1`: the minimal effective dose was 6.25 mg/kg.

As to `Cc1cc(Nc2ccc(F)c(F)c2)c2cc(N)ccc2n1`, the minimal effective dose came out at 12.5 mg/kg.

`CC(=O)Nc1ccc2nccc(Nc3ccc(OCC4CCCCC4)cc3)c2c1`: the minimal effective dose came to 6.25 mg/kg.

For the molecule `CS(=O)(=O)Nc1ccc2nc(-c3ccccc3)cc(Nc3ccc(OCC4CCCCC4)cc3)c2c1`, the minimal effective dose was 12.5 mg/kg.

Consider `O=[N+]([O-])c1ccc2nc(-c3ccccc3)cc(Nc3ccc(Cl)cc3)c2c1`, for which the minimal effective dose is over 50 mg/kg.

Take `Nc1ccc2nc(-c3ccccc3)cc(Nc3ccc(Cl)cc3)c2c1`: the minimal effective dose is 5.6 mg/kg.

`CCCCOc1ccc(Nc2ccnc3ccc(N)cc23)cc1`: the minimal effective dose was found to be 25 mg/kg.

As to `O=[N+]([O-])c1ccc2nc(-c3ccccc3)cc(Nc3ccc(OCC4CCCCC4)cc3)c2c1`, the minimal effective dose was over 50 mg/kg.

In the case of `NC(=O)Nc1ccc2nc(-c3ccccc3)cc(Nc3ccc(OCC4CCCCC4)cc3)c2c1`, the minimal effective dose turned out to be 6.25 mg/kg.

The values above are taken from ChEMBL document CHEMBL1152091, “The synthesis and identification of 4,6-diaminoquinoline derivatives as potent immunostimulants” (1992).
